Laboratory results as given in US20220402883A1, “COMPOUNDS AND METHODS FOR MODULATING RNA FUNCTION” (Arrakis Therapeutics, Inc., priority 2016, published 2022).
“Also recorded” adds a separate entry of the source.

Assays:
[1] = test system: Split3WJ.1_up_5IB+Split3WJ.1_down_3FAM (trans 3WJ as 1:1 mix; Split3WJ_1); experiment: Thermal shift binding assay; conditions: 1 μM RNA, 8 μM compound, 10 mM CacoK pH 7.2, 30 mM NaCl
Description: (§1) Purpose: Test binding of compounds for RNA three way junction (for example, a construct of 38 nt). Thermal shift assay based on established fluorescence quenching assay utilizing FAM as fluorescence tag and Iowa Black as quencher. Tags were attached at the 3′ and 5′ end, respectively. Stable formation of 3WJ upon compound binding would lead to quenching of the FAM fluorescence due to close proximity of the Iowa Black tag. Thermal unfolding leads to increase of fluorescence emission. Assay readout: FAM (465-510 nm) Thermal Shift.
(§2) Assay sample buffer used: 10 mM CacoK pH 7.2, 30 mM NaCl. Buffer preparation in Dnase/Rnase Free distilled water (Gibco Life Technologies).
(§3) Dilute the RNA 1:10 (final 10 μM) in Assay Buffer.
(§4) Heat up the diluted RNA up to 90° C. for 5 min (sealed Eppendorf Tube).
(§5) Cool down the RNA probe slowly to RT.
(§6) Dilute the compounds to 800 μM in DMSO (Assay: 8 μM).
(§7) Final concentrations in the sample: 1 μM RNA, 8 μM compound, 1% DMSO
(§8) Pipet 20 μL Sample Solution into Roche, Light Cycler480 Multiwell Plate96, white, REF 04729692001.
(§9) Measure the 96 plate with the LightCycler480 (Channel: 480/510 nm; Temperature: 41-91° C.).
(§10) Analyse measurement-data with the MeltingCurveGenotyping Mode.
(§11) Settings: Acquisition mode: continuous; Ramp rate: 0.1° C./sec; Acquisition: 6° C.
(§12) Curves are fitted with raw and normalized data.
(§13) Melting curves analysis show melting temperature (Tm) of ˜51° C. Range of RNA concentrations was tested and assay window was determined (conc. range of 0.5-1 μM yields best results). The choice of buffer also affected the Tm. RNA constructs were tested under different buffer conditions (especially in presence of salt) in the thermal shift assay. […] CacoK with 30 mM salt at 1 μM RNA conc. was used to assess compound effects on 3WJ stability. […] These conditions were used for screening test compounds.
(§14) Compounds Ark0000013 and Ark0000014 were also tested in the thermal shift assay against three RNA 3WJ constructs, A) RNA3WJ_1.0.0_5IB_3FAM (cis 3WJ with one unpaired nucleotide); B) Split3WJ.1_up_5IB+Split3WJ.1_down_3FAM (trans 3WJ as 1:1 mix); and C) Split3WJ.2_up_5IB+Split3WJ.2_down_3FAM (trans 3WJ as 1:1 mix).

[2] = test system: Split3WJ.2_up_5IB+Split3WJ.2_down_3FAM (trans 3WJ as 1:1 mix; Split3WJ_2); experiment: Thermal shift binding assay; conditions: 1 μM RNA, 8 μM compound, 10 mM CacoK pH 7.2, 30 mM NaCl
Description: as §1, §2, §3, §4, §5, §6, §7, §8, §9, §10, §11, §12, §13, §14

[3] = test system: RNA3WJ_1.0.0_5IB_3FAM (cis 3WJ with one unpaired nucleotide); experiment: Thermal shift binding assay; conditions: 1 μM RNA, 8 μM compound
Description: as §1, §2, §3, §4, §5, §6, §7, §8, §9, §10, §11, §12, §13, §14

[4] = test system: RNA3WJ_1.0.0_5IB_3FAM (cis 3WJ with one unpaired nucleotide); experiment: Fluorescence quenching binding assay (FAM / Iowa Black); conditions: two concentration points
Protocol: (§15) This assay will be used to test binding of compounds for RNA three way junction (such as a 38 nt construct). This is a fluorescence quenching assay utilizing FAM as fluorescence tag and Iowa Black as quencher. Tags are attached at the 3′ and 5′ end, respectively. Stable formation of MW upon compound binding would lead to quenching of the FAM fluorescence due to close proximity of the Iowa Black tag. Assay readout: FAM (485-520 nm) Fluorescence Intensity.
as §2, §3, §4, §5, §6
(§16) Final concentrations in the sample: 1-10 μM RNA, 8 μM compound, 1% DMSO
(§17) Pipet 25 μL Sample Solution into Greiner cat #784076, black, 384
(§18) Measure the 96 plate with the LightCycler480 (Channel: 485/520 nm).
(§19) The fluorescence quenching experiment was repeated for compounds Ark0000013 and Ark0000014 to measure binding with:
A) RNA3WJ_1.0.0_5IB_3FAM (cis 3WJ with one unpaired nucleotide)
(§20) Both cmpds were tested at two concentration points in the fluorescence quenching assays to assess effect upon RNA constructs utilized in the study. […]

[5] = test system: Split3WJ.1_up_5IB+Split3WJ.1_down_3FAM (trans 3WJ as 1:1 mix); experiment: as above; conditions: two concentration points
Protocol: as §15, §2, §3, §4, §5, §6, §16, §17, §18, §19
B) Split3WJ.1_up_5IB+Split3WJ.1_down_3FAM (trans 3WJ as 1:1 mix)
as §20

RNA3WJ_1.1.1_5IB_3FAM = experiment: Thermal shift binding assay; conditions: 1 μM RNA, 8 μM compound, 10 mM CacoK pH 7.2, 30 mM NaCl
Description: as §1, §2, §3, §4, §5, §6, §7, §8, §9, §10, §11, §12, §13

RNA3WJ_1.1.0_5IB_3FAM = experiment: Thermal shift binding assay; conditions: 1 μM RNA, 8 μM compound, 10 mM CacoK pH 7.2, 30 mM NaCl
Description: as §1, §2, §3, §4, §5, §6, §7, §8, §9, §10, §11, §12, §13

RNA3WJ_2.0.0_5IB_3FAM = experiment: Thermal shift binding assay; conditions: 1 μM RNA, 8 μM compound, 10 mM CacoK pH 7.2, 30 mM NaCl
Description: as §1, §2, §3, §4, §5, §6, §7, §8, §9, §10, §11, §12, §13

RNA3WJ_2.1.0_5IB_3FAM = experiment: Thermal shift binding assay; conditions: 1 μM RNA, 8 μM compound, 10 mM CacoK pH 7.2, 30 mM NaCl
Description: as §1, §2, §3, §4, §5, §6, §7, §8, §9, §10, §11, §12, §13

CN(CCCN)CCCNC(=O)c1ccc2c(c1)C1c3cc(C(=O)NCCCN(C)CCCN)ccc3C2c2ccc(C(=O)NCCCN(C)CCCN)cc21 [Ark000013, N^2,N^7,N^15-tris(3-((3-aminopropyl)(methyl)amino)propyl)-9,10-dihydro-9,10-[1,2]benzenoanthracene-2,7,15-tricarboxamide]
Melting temp + cmpd [1]: 58.2 °C
Temp. Shift [1]: ~21 °C
Temp. Shift ([1]; listed as Ark0000013): 20.4 °C
Melting temp + cmpd [2]: 56.9 °C
Temp. Shift [2]: ~13 °C
Temp. Shift ([2]; listed as Ark0000013): 12.2 °C
effect in the melting curves (in words) [3]: significantly lower fluorescence signal; also recorded: no proper melting curve
Melting temp + cmpd ([3]; 10 mM CacoK pH 7.2, 30 mM NaCl): 87.0 °C
Temp. Shift ([3]; 10 mM CacoK pH 7.2, 30 mM NaCl): 21.4 °C
fluorescence quenching effect (FAM fluorescence signal) [4]: significant concentration dependent effect
fluorescence quenching effect (FAM fluorescence signal) [5]: significant concentration dependent effect
Melting temp + cmpd (RNA3WJ_1.1.1_5IB_3FAM): 82.9 °C
Temp. Shift (RNA3WJ_1.1.1_5IB_3FAM): 20.7 °C
Melting temp + cmpd (RNA3WJ_1.1.0_5IB_3FAM): 85.5 °C
Temp. Shift (RNA3WJ_1.1.0_5IB_3FAM): 22.2 °C
Melting temp + cmpd (RNA3WJ_2.0.0_5IB_3FAM): 84.3 °C
Temp. Shift (RNA3WJ_2.0.0_5IB_3FAM): 22.1 °C
Melting temp + cmpd (RNA3WJ_2.1.0_5IB_3FAM): 45.7 °C
Temp. Shift (RNA3WJ_2.1.0_5IB_3FAM): 3.8 °C
